From US20240124408A1 (Sanofi, priority 2020, published 2024) come the findings set out here.

The target in one assay is T1, human TRPM8 (Homo sapiens, UniProt Q7Z2W7).
T1 construct: expressed in transfected cells; host or cells: CHO (p658 mammalian expression vector)
In words: In vitro human TRPM8 fluorescence calcium flux assay (recombinant CHO cells, Fluo4-AM, FDSS6000). Format: cell-based. The note with it: recombinant CHO cells expressing human TRPM8; menthol-related EC50, normalized to 100 μM menthol. The protocol: (§1) In Vitro Pig and Human TRPM8 Fluorescence Calcium Flux Assays
(§2) For functional expression of TRPM8, the full-length cDNA encoding human (NM_024080) and pig (XM_001927892.1) TRPM8 sequences were subcloned into p658 and pcDNA5/FRT/TO mammalian expression vectors, respectively. Engineered recombinant CHO cell lines expressing human or pig TRPM8 were generated. Culture media was Ham-F12 with 10% FCS for both lines, and for the pig cell line only 400 μg/ml hygromycin B and 30 μg/mL blasticidin were added as selection antibiotics (all reagents were obtained from Invitrogen, Fisher Scientific). Cells were grown in culture flasks up to 80% confluence where they were harvested using accutase (Sigma, MO, USA) to detach the cells by enzymatic dissociation and either seeded directly into assay plates or cryopreserved for future use.
(§3) For calcium flux assays, cells were plated into clear base poly-D-lysine coated 384-well plates (BD Biosciences, NJ USA) at a density of 15,000 cells per well in appropriate culture medium and grown overnight. The following day, all medium was removed then the cells were incubated with 2 μM of Fluo4-AM Dye (Molecular Probes) prepared in complete HBSS assay buffer containing 20 mM HEPES, 0.1% BSA, and 2.5 mM probenecid at room temperature for one hour. Following incubation, plates were inserted into a FDSS6000 instrument (Hamamatsu, Photonics, Japan) instrument, where cells were challenged with compounds of the formula (at varying concentrations) and intracellular calcium was measured kinetically for 3 min after addition.
(§4) This protocol allowed the determination of an EC50 value, from the sixteen-point dose response data, for each compound of the formula tested. Maximal fluorescence intensity achieved upon addition of 100 μM menthol (stock solution prepared in ethanol from solid, Sigma-Aldrich) was exported from the FDSS and further analyzed using IDBS XLFit 5. Data were normalized to the average 100 μM menthol response (maximum control wells) included in each plate. The dose response curves from the average of wells for each data point were analyzed by using nonlinear regression of sigmoidal dose response (formula 205). Finally, the (menthol-related) EC50 values (Half maximal effective concentration) were calculated with the best-fit dose curve determined by IDBS XLFit 5 software.
For orientation: Calcium flux is commonly read through the fluorescence of an indicator in the cells.

A further assay deals with T2, pig TRPM8 (Sus scrofa, UniProt F1SM15).
T2 construct: expressed in transfected cells; host or cells: CHO (pcDNA5/FRT/TO vector; hygromycin B and blasticidin selection)
T2 sequence (F1SM15 1-1104): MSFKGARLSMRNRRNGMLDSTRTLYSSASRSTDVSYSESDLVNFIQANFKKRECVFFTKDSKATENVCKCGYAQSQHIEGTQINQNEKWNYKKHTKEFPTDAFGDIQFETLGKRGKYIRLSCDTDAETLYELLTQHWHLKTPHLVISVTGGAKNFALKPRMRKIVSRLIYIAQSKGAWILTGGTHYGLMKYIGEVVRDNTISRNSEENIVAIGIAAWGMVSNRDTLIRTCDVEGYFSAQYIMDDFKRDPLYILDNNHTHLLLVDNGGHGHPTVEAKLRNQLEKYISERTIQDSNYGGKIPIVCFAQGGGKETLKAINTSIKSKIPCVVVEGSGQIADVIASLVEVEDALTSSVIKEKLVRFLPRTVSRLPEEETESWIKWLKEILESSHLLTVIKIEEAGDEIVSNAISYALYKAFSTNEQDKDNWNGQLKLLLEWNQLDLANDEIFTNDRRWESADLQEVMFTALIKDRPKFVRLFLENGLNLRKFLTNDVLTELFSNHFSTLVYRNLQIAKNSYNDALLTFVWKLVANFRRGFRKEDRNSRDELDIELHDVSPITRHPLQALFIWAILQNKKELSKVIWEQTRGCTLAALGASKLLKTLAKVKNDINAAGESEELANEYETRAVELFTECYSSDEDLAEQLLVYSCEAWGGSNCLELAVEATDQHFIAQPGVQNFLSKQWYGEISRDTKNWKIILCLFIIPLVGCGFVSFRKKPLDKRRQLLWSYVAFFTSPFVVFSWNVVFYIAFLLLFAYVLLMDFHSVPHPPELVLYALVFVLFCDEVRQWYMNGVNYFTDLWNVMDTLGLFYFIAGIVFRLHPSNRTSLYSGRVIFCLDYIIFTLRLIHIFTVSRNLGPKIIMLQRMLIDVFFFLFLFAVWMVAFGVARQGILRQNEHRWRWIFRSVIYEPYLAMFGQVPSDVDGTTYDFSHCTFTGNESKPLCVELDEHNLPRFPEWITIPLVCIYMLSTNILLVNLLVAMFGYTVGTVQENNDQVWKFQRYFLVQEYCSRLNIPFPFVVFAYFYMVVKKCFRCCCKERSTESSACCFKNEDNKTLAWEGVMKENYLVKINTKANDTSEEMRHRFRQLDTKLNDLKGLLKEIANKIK
In words: In vitro pig TRPM8 fluorescence calcium flux assay (recombinant CHO cells, Fluo4-AM, FDSS6000). The assay is classed as cell-based. The conditions noted are these: recombinant CHO cells expressing pig TRPM8; menthol-related EC50, normalized to 100 μM menthol. The protocol:
as §1, §2, §3, §4

T1 sequence (Q7Z2W7 whole entry): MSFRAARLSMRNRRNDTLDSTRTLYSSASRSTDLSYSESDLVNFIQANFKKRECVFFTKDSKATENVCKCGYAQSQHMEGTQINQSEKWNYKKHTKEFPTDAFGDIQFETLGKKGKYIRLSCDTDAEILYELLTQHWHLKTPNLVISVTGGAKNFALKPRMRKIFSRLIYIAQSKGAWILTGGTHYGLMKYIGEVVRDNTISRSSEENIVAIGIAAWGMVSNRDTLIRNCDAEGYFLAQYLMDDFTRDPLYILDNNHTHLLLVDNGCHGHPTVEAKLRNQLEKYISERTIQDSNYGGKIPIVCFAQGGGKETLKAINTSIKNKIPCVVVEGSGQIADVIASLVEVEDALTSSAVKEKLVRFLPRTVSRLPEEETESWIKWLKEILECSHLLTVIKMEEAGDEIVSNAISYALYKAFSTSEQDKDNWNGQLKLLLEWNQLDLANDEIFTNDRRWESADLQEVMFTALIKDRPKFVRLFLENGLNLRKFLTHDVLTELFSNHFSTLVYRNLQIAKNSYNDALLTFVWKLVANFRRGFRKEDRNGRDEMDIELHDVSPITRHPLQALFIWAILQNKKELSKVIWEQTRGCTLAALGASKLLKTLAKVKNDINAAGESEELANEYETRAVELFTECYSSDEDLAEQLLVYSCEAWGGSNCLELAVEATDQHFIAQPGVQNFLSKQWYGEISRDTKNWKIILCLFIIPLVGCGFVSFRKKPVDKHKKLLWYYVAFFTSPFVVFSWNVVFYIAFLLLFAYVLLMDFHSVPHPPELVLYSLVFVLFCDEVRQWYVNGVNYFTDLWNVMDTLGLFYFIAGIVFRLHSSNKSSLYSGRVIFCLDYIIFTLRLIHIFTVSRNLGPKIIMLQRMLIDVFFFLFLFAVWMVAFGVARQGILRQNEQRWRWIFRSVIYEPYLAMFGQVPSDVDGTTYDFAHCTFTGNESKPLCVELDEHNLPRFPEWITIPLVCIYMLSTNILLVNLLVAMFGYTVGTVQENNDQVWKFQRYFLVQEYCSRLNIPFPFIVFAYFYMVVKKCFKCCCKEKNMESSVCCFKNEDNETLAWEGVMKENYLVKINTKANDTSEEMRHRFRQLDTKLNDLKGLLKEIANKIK

A word on the EC50: it is the concentration needed to bring the measured effect to its halfway point. As to `Cc1cccc(C(=O)CNC(=O)[C@]2(O)C[C@H](C)CC[C@H]2C(C)C)c1` [Example 141, (1S,2S,5R)-1-hydroxy-2-isopropyl-5-methyl-N-[2-(m-tolyl)-2-oxo-ethyl]cyclohexanecarboxamide], the figures for the EC50 on human TRPM8 and on pig TRPM8 were 2.7 nM and 1.2 nM, respectively.

In the case of `Cc1ccc(CCNC(=O)[C@]2(O)C[C@H](C)CC[C@H]2C(C)C)cc1` [Example 60, (1S,2S,5R)-1-hydroxy-2-isopropyl-5-methyl-N-(4-methylphenethyl)cyclohexane-1-carboxamide], the concentration for a half-maximal effect (EC50) at human TRPM8 is 43.5 nM; at pig TRPM8 it was 7.1 nM.

Take `CC(C)[C@@H]1CC[C@@H](C)C[C@@]1(O)C(=O)NCC1(O)CCCc2ccccc21` (mixture of isomers) [Example 177, (1S,2S,5R)-1-hydroxy-N-(((1RS)-hydroxy-1,2,3,4-tetrahydronaphthalen-1-yl)methyl)-2-isopropyl-5-methylcyclohexane-1-carboxamide]: the EC50 on human TRPM8 was 3.6 nM; on pig TRPM8, 3.4 nM.

Take `CC(C)[C@@H]1CC[C@@H](C)C[C@@]1(O)C(=O)N[C@@H](CO)Cc1ccc(O)cc1` [Example 170, (1S,2S,5R)-1-hydroxy-N-[(1R)-1-(hydroxymethyl)-2-(4-hydroxyphenyl)ethyl]-2-isopropyl-5-methyl-cyclohexanecarboxamide]: the 50% effective concentration (EC50) on human TRPM8 was 37.1 nM; at pig TRPM8, 60.3 nM.

Regarding `CC(C)[C@@H]1CC[C@@H](C)C[C@@]1(O)C(=O)NCC1(O)CCc2c(Cl)cccc21` (stereo partly drawn) [Example 144, (1S,2S,5R)-N-[(4-chloro-1-hydroxy-indan-1-yl)methyl]-1-hydroxy-2-isopropyl-5-methyl-cyclohexanecarboxamide], the figures for the EC50 at human TRPM8 and at pig TRPM8 were 4.8 nM and 1.8 nM, respectively.

In the case of `CC(C)[C@@H]1CC[C@@H](C)C[C@@]1(O)C(=O)NCC(=O)c1ccc(O)cc1O` [Example 102, (1S,2S,5R)—N-(2-(2,4-dihydroxyphenyl)-2-oxoethyl)-1-hydroxy-2-isopropyl-5-methylcyclohexane-1-carboxamide], the values for the EC50 on human TRPM8 and at pig TRPM8 were 42 nM and 69 nM, respectively.

For `CC(C)[C@@H]1CC[C@@H](C)C[C@@]1(O)C(=O)NCC(=O)c1ccc(F)cc1` [Example 135, (1S,2S,5R)-N-[2-(4-fluorophenyl)-2-oxo-ethyl]-1-hydroxy-2-isopropyl-5-methyl-cyclohexanecarboxamide], the EC50 at human TRPM8 came to 2.1 nM; at pig TRPM8, 1.1 nM.

As to `COc1ccc(C(=O)CNC(=O)[C@]2(O)C[C@H](C)CC[C@H]2C(C)C)c(OC)c1` [Example 99, (1S,2S,5R)—N-(2-(2,4-dimethoxyphenyl)-2-oxoethyl)-1-hydroxy-2-isopropyl-5-methylcyclohexane-1-carboxamide], the results for the EC50 at human TRPM8 and at pig TRPM8 were 110 nM and 99.1 nM, respectively.

Regarding `CC(C)[C@@H]1CC[C@@H](C)C[C@@]1(O)C(=O)NCCc1cccc(CCC(=O)O)c1` [Example 87, 3-(3-(2-((1S,2S,5R)-1-hydroxy-2-isopropyl-5-methylcyclohexane-1-carboxamido)ethyl)phenyl)propanoic acid], the EC50 was 982 nM at human TRPM8 and 259 nM on pig TRPM8.

As for `COc1cc(CCNC(=O)[C@]2(O)C[C@H](C)CC[C@H]2C(C)C)cc(OC)c1O` [Example 130, (1S,2S,5R)-1-hydroxy-N-[2-(4-hydroxy-3,5-dimethoxy-phenyl)ethyl]-2-isopropyl-5-methyl-cyclohexanecarboxamide], the half-maximal effective concentration (EC50) was found to be 433 nM at human TRPM8 and 185 nM at pig TRPM8.

Turning to `[2H]C(O)(CNC(=O)[C@]1(O)C[C@H](C)CC[C@H]1C(C)C)c1ccccc1` (single isomer, unassigned) [Example 91], the half-maximal effective concentration (EC50) is 19 nM on human TRPM8 and 5.2 nM on pig TRPM8.

Consider `CC(C)[C@@H]1CC[C@@H](C)C[C@@]1(O)C(=O)NCC(=O)c1cccc(O)c1O` [Example 104, (1S,2S,5R)—N-(2-(2,3-dihydroxyphenyl)-2-oxoethyl)-1-hydroxy-2-isopropyl-5-methylcyclohexane-1-carboxamide], for which the EC50 was found to be 1.1 nM at human TRPM8 and 0.6 nM at pig TRPM8.

For the compound `COc1ccc(C(=O)CNC(=O)[C@]2(O)C[C@H](C)CC[C@H]2C(C)C)cc1` [Example 121, (1S,2S,5R)-1-hydroxy-2-isopropyl-N-[2-(4-methoxyphenyl)-2-oxo-ethyl]-5-methyl-cyclohexanecarboxamide], the figures for the EC50 on human TRPM8 and on pig TRPM8 were 18.7 nM and 4.9 nM, respectively.

In the case of `COc1ccc2c(c1)CCC2CNC(=O)[C@]1(O)C[C@H](C)CC[C@H]1C(C)C` (stereo partly drawn) [Example 152, (1S,2S,5R)-1-hydroxy-2-isopropyl-N-[(5-methoxyindan-1-yl)methyl]-5-methyl-cyclohexanecarboxamide], the concentration giving a half-maximal response (EC50) at human TRPM8 was found to be 310 nM; on pig TRPM8, 47 nM.

On to `CC(C)[C@@H]1CC[C@@H](C)C[C@@]1(O)C(=O)NCCc1ccc(S(N)(=O)=O)cc1` [Example 118, (1S,2S,5R)-1-hydroxy-2-isopropyl-5-methyl-N-[2-(4-sulfamoylphenyl)ethyl]cyclohexanecarboxamide], for which the results for the EC50 on human TRPM8 and on pig TRPM8 were 557 nM and 264 nM, respectively.

Turning to `CC(C)[C@@H]1CC[C@@H](C)C[C@@]1(O)C(=O)NCC(O)(c1ccccc1)C(F)(F)F` (single isomer, unassigned) [Example 83], the results for the EC50 on human TRPM8 and at pig TRPM8 were 168 nM and 136 nM, respectively.

`CC(C)[C@@H]1CC[C@@H](C)C[C@@]1(O)C(=O)NCc1cccc(CO)c1` [Example 161, (1S,2S,5R)-1-hydroxy-N-[[3-(hydroxymethyl)phenyl]methyl]-2-isopropyl-5-methyl-cyclohexanecarboxamide]: the EC50 was 882 nM at human TRPM8 and 516 nM at pig TRPM8.

Consider `Cc1cccnc1CCNC(=O)[C@]1(O)C[C@H](C)CC[C@H]1C(C)C` [Example 127, (1S,2S,5R)-1-hydroxy-2-isopropyl-5-methyl-N-[2-(3-methyl-2-pyridyl)ethyl]cyclohexanecarboxamide], for which the EC50 was determined as 359 nM on human TRPM8 and 152 nM at pig TRPM8.

As to `Cc1cccc(C(O)CNC(=O)[C@]2(O)C[C@H](C)CC[C@H]2C(C)C)c1` (stereo partly drawn) [Example 12, (1S,2S,5R)-1-hydroxy-N-(2-hydroxy-2-(m-tolyl)ethyl)-2-isopropyl-5-methylcyclohexane-1-carboxamide], the EC50 on human TRPM8 turned out to be 3 nM; at pig TRPM8, 2 nM.

For the compound `CC(C)[C@@H]1CC[C@@H](C)C[C@@]1(O)C(=O)NCC1CCOc2ccccc21` (stereo partly drawn) [Example 103, (1S,2S,5R)—N-(chroman-4-ylmethyl)-1-hydroxy-2-isopropyl-5-methylcyclohexane-1-carboxamide], the results for the EC50 at human TRPM8 and on pig TRPM8 were 18.8 nM and 14.9 nM, respectively.

For the compound `CC(C)[C@@H]1CC[C@@H](C)C[C@@]1(O)C(=O)NCC(=O)c1cc(F)cc(F)c1` [Example 138, (1S,2S,5R)-N-[2-(3,5-difluorophenyl)-2-oxo-ethyl]-1-hydroxy-2-isopropyl-5-methyl-cyclohexanecarboxamide], the EC50 at human TRPM8 worked out at 3.8 nM; on pig TRPM8, 1.7 nM.

Consider `COc1ccc(OC)c(CCNC(=O)[C@]2(O)C[C@H](C)CC[C@H]2C(C)C)c1` [Example 128, (1S,2S,5R)-N-[2-(2,5-dimethoxyphenyl)ethyl]-1-hydroxy-2-isopropyl-5-methyl-cyclohexanecarboxamide], for which the results for the EC50 on human TRPM8 and on pig TRPM8 were 303 nM and 212 nM, respectively.

For the compound `CC(C)[C@@H]1CC[C@@H](C)C[C@@]1(O)C(=O)NCC(=O)c1sccc1Cl` [Example 148, (1S,2S,5R)-N-[2-(3-chloro-2-thienyl)-2-oxo-ethyl]-1-hydroxy-2-isopropyl-5-methyl-cyclohexanecarboxamide], the EC50 on human TRPM8 and on pig TRPM8 was 4 nM each time.

As to `CC(C)[C@@H]1CC[C@@H](C)C[C@@]1(O)C(=O)NCC(=O)c1ccc(Cl)cc1` [Example 134, (1S,2S,5R)-N-[2-(4-chlorophenyl)-2-oxo-ethyl]-1-hydroxy-2-isopropyl-5-methyl-cyclohexanecarboxamide], the results for the EC50 at human TRPM8 and on pig TRPM8 were 3.4 nM and 1.3 nM, respectively.

Turning to `CC(C)[C@@H]1CC[C@@H](C)C[C@@]1(O)C(=O)NC[C@H](O)c1ccccc1` [Example 178, (1S,2S,5R)-1-hydroxy-N-((2R)-2-hydroxy-2-phenylethyl)-2-isopropyl-5-methylcyclohexane-1-carboxamide], the EC50 turned out to be 1260 nM on human TRPM8 and 358 nM at pig TRPM8.

Turning to `CC(C)[C@@H]1CC[C@@H](C)C[C@@]1(O)C(=O)NCC(=O)c1cc(F)ccc1F` [Example 139, (1S,2S,5R)-N-[2-(2,5-difluorophenyl)-2-oxo-ethyl]-1-hydroxy-2-isopropyl-5-methyl-cyclohexanecarboxamide], the EC50 was determined as 5.3 nM on human TRPM8 and 1.7 nM at pig TRPM8.
